pIC50: −log10 of the molar value.
Columns and labels:
PIK3CD (Human) [1] = biological target: PIK3CD (Human) (UniProt O00329); assay: Enzyme Assay
PIK3CA (human) [2] = biological target: PIK3CA (human) (UniProt P42336); assay: Enzyme Assay
PIK3CG (human) [3] = biological target: PIK3CG (human) (UniProt P48736); assay: Enzyme Assay
PIK3CD (Human) [4] = biological target: PIK3CD (Human) (UniProt O00329); assay: Cell-Based Assay; conditions: rat-1
PIK3CA (human) [5] = biological target: PIK3CA (human) (UniProt P42336); assay: Cell-Based Assay; conditions: rat-1
PIK3CG (human) [6] = biological target: PIK3CG (human) (UniProt P48736); assay: Cell-Based Assay; conditions: u937

Chain of PIK3CA (human) (P42336 whole entry, looked up): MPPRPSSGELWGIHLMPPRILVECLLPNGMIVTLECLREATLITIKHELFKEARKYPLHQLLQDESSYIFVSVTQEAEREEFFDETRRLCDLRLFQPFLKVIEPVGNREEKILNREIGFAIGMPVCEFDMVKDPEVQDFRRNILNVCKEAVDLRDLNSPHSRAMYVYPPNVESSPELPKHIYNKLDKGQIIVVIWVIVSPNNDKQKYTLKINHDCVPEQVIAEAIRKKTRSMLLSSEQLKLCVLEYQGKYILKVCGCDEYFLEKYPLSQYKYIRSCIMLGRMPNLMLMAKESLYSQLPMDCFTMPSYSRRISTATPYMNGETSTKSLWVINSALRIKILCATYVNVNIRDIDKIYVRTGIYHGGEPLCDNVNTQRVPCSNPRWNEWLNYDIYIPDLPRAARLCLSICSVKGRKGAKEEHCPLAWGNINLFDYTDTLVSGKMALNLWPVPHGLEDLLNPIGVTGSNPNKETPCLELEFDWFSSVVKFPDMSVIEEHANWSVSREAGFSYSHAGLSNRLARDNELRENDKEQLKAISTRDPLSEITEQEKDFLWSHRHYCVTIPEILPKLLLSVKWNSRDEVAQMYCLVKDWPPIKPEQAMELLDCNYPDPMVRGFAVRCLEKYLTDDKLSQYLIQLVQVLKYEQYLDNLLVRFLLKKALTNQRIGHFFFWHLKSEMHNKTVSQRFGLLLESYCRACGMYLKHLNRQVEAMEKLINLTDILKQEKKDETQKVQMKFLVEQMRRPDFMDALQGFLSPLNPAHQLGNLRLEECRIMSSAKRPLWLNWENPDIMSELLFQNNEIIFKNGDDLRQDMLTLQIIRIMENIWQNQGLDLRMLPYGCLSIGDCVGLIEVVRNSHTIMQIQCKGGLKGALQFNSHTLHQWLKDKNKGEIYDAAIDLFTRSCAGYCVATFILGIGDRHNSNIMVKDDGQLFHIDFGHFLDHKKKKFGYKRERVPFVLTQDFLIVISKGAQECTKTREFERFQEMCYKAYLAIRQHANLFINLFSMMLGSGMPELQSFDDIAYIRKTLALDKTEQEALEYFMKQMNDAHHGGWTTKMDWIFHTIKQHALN
Chain of PIK3CD (Human) (O00329 whole entry, looked up): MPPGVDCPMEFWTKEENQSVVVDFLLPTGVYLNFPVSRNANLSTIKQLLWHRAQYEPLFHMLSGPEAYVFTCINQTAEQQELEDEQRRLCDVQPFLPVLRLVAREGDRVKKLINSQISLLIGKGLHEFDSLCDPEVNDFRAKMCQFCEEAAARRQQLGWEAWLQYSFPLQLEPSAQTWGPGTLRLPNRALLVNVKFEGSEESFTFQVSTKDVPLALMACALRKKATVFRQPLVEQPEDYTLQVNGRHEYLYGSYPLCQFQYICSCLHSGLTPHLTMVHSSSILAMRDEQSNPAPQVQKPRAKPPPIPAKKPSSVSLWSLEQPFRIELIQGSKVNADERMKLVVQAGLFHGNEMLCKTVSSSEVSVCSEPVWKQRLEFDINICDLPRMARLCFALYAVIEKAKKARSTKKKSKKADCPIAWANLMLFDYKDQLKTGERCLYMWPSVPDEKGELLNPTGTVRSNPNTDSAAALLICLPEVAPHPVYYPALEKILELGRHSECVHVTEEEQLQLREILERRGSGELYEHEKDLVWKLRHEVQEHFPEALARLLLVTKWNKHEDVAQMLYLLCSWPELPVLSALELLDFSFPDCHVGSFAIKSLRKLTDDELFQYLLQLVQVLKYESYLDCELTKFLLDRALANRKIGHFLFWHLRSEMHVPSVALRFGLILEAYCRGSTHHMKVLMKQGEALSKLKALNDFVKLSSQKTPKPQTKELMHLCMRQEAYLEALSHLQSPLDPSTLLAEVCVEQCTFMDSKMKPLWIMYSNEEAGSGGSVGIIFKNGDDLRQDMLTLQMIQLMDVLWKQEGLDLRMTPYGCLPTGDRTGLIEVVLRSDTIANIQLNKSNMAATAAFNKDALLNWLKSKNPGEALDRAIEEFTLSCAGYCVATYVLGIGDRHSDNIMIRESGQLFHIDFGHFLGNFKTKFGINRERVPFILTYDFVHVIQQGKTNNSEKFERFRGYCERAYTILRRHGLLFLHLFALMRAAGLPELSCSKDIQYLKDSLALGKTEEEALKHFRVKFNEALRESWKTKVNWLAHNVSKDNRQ
Chain of PIK3CG (human) (P48736 whole entry, looked up): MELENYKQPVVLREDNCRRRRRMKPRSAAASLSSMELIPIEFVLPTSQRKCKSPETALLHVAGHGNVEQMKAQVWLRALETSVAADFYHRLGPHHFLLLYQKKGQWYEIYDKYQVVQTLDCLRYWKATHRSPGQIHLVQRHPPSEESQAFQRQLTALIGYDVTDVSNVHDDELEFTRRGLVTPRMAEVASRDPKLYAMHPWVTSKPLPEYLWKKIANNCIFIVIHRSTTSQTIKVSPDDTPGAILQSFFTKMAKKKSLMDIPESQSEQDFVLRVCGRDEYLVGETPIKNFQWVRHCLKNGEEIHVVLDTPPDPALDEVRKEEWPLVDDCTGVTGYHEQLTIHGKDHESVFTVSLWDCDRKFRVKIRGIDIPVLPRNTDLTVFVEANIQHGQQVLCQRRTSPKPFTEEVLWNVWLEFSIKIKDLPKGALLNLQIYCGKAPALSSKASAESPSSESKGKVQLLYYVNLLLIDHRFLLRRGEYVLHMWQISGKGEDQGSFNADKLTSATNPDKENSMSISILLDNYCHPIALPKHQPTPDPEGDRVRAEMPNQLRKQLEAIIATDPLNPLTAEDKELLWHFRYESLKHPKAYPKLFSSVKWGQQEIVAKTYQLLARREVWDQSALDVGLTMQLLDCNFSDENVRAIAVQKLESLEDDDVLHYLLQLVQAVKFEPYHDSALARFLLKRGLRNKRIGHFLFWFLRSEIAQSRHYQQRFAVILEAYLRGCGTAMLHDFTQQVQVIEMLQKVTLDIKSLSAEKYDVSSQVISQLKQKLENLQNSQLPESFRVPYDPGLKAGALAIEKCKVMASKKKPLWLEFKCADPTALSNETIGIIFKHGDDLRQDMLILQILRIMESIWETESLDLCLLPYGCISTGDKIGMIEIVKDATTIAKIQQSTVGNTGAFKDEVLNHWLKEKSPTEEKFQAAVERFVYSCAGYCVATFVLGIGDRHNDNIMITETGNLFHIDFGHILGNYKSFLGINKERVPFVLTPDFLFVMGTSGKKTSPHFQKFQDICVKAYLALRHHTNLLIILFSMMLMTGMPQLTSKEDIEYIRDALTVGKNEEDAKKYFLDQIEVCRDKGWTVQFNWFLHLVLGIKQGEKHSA

SMILES	pIC50 (PIK3CD (Human) [1])	pIC50 (PIK3CA (human) [2])	pIC50 (PIK3CG (human) [3])	pIC50 (PIK3CD (Human) [4])	pIC50 (PIK3CA (human) [5])	pIC50 (PIK3CG (human) [6])
Cc1nc(N)nc(N2C[C@@H](O)C[C@H]2c2nc3cccc(Cl)c3c(=O)n2C2CC2)c1C#N	6.66	6.16	7.07	7.07	5.37	6.66
O=c1c2c(Cl)cccc2nc([C@@H]2CCCN2c2ncnc3scnc23)n1-c1ccccc1	8.40	5.29	7.09	7.29	5.33	6.67
Nc1nc(N2CCC[C@H]2c2nc3cccc(C(F)(F)F)c3c(=O)n2-c2ccccc2)c2nccn2n1	7.17	5.55	7.03	5.09	< 5.00	6.51
N#Cc1c(C(F)F)nc(N)nc1N1C[C@@H](O)C[C@H]1c1nc2cccc(C(F)(F)F)c2c(=O)n1-c1ccccc1	6.66	< 5.00	7.24	6.29	< 5.00	6.73
Cc1nc(N)nc(N2CCC[C@H]2c2nc3cccc(F)c3c(=O)n2-c2ccccc2)c1C#N	7.68	6.48	7.19	8.05	5.54	6.94
N#Cc1c(N)ncnc1N1C[C@@H](O)C[C@H]1c1nc2cccc(Cl)c2c(=O)n1-c1ccccc1	8.40	6.00	7.30	> 8.52	5.55	6.57
O=c1c2c(C(F)(F)F)cccc2nc([C@@H]2C[C@H](F)CN2c2ncnc3[nH]cnc23)n1-c1ccccc1	> 8.52	5.44	7.17	7.48	5.28	7.06
Cc1nc(N)nc(N2C[C@@H](F)C[C@H]2c2nc3cccc(C(F)(F)F)c3c(=O)n2-c2cccnc2)c1C#N	7.59	5.89	7.46	7.64	5.38	7.28
O=c1c2c(C(F)(F)F)cccc2nc([C@@H]2C[C@H](O)CN2c2ncnc3[nH]cnc23)n1-c1ccccc1	7.80	5.85	6.68	7.04	5.14	7.47
N#Cc1c(N)ncnc1N1CCC[C@H]1c1nc2cccc(Cl)c2c(=O)n1-c1ccccc1	> 8.52	6.41	7.62	8.15	5.76	7.13
Nc1nc(N2CCC[C@H]2c2nc3cccc(C(F)(F)F)c3c(=O)n2-c2ccccc2)c2ncsc2n1	7.32	5.77	7.06	6.96	< 5.00	7.40
Nc1nc(N2C[C@@H](F)C[C@H]2c2nc3cccc(C(F)(F)F)c3c(=O)n2-c2cccc(F)c2)c2nc[nH]c2n1	7.59	5.60	7.42	7.30	5.08	7.15
N#Cc1c(N)ncnc1N1CCC[C@H]1c1nc2cccc(F)c2c(=O)n1-c1ccccc1	7.72	5.52	6.19	> 8.52	< 5.00	6.83
O=c1c2c(Cl)cccc2nc([C@@H]2C[C@H](OC(F)F)CN2c2ncnc3[nH]cnc23)n1-c1ccccc1	8.30	6.21	7.47	7.77	< 5.00	6.93
CO[C@H]1C[C@@H](c2nc3cccc(Cl)c3c(=O)n2-c2ccccc2)N(c2ncnc(N)c2C#N)C1	8.40	5.89	7.46	8.00	5.39	6.68
Cc1nc(N)nc(N2C[C@@H](O)C[C@H]2c2nc3ccc(F)c(C4CC4)c3c(=O)n2-c2ccccc2)c1C#N	8.40	6.96	7.96	8.22	5.63	7.46
Cc1nc(N)nc(N2C[C@@H](O)C[C@H]2c2nc3cccc(C(F)(F)F)c3c(=O)n2-c2cc(F)cc(F)c2)c1C#N	7.01	5.51	6.05	7.38	5.05	7.22
N#Cc1c(N)ncnc1N1C[C@@H](O)C[C@H]1c1nc2ccc(F)c(Cl)c2c(=O)n1-c1ccccc1	7.33	5.55	6.00	7.57	5.10	7.59
CC1(n2c([C@@H]3CCCN3c3ncnc(N)c3C#N)nc3cccc(Cl)c3c2=O)CC1	> 8.52	6.23	7.72	8.30	5.37	7.43
N#Cc1c(N)ncnc1N1CSC[C@H]1c1nc2cccc(Cl)c2c(=O)n1-c1ccccc1	8.30	5.63	6.89	7.85	5.09	< 5.00

From the Kinase Knowledgebase extract (Sharma et al. 2016)
